#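 A five-concentration, 48-hour dose response in 96-well plates underlies each endpoint, interpolated linearly between surrounding concentrations. GI50: concentration for 50% inhibition of growth. TGI marks complete inhibition of growth.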
# How the values were obtained:
# Experiment in all cases: DTP human tumour cell line panel, 48 h
# [1] = test system: KM12 colon
# [2] = test system: SNB-75 CNS
# [3] = test system: HCT-116 colon
# [4] = test system: OVCAR-8 ovarian
# [5] = test system: SR leukemia
# [6] = test system: A549 NSCLC
# [7] = test system: SW-620 colon
# [8] = test system: SF-295 CNS
# [9] = test system: MDA-MB-435
# [10] = test system: OVCAR-3 ovarian
# [11] = test system: HCC-2998 colon
# [12] = test system: U251 CNS
# [13] = test system: UACC-257 melanoma
# [14] = test system: K-562 leukemia
# [15] = test system: OVCAR-5 ovarian
# [16] = test system: M14 melanoma
# [17] = test system: NCI/ADR-RES ovarian
# [18] = test system: SK-OV-3 ovarian
# [19] = test system: TK-10 renal
# [20] = test system: DU-145 prostate
# [21] = test system: CAKI-1 renal
# [22] = test system: ACHN renal
# [23] = test system: SN12C renal
# [24] = test system: SK-MEL-28 melanoma
# [25] = test system: MCF7 breast
# [26] = test system: HL-60(TB) leukemia
# [27] = test system: NCI-H460 lung
# [28] = test system: LOX IMVI melanoma
# [29] = test system: PC-3 prostate
# [30] = test system: MOLT-4 leukemia
# [31] = test system: MALME-3M melanoma
# [32] = test system: UO-31 renal
# [33] = test system: A498 renal
# [34] = test system: SF-539 CNS
# [35] = test system: HCT-15 colon
# [36] = test system: SNB-19 CNS
# [37] = test system: SF-268 CNS
# [38] = test system: MDA-MB-231 breast
# [39] = test system: HS 578T breast
# [40] = test system: NCI-H226 lung
# [41] = test system: NCI-H23 lung
# [42] = test system: RXF 393 renal
# [43] = test system: EKVX NSCLC
# [44] = test system: SK-MEL-5 melanoma
# [45] = test system: OVCAR-4 ovarian
# [46] = test system: 786-0 renal
# [47] = test system: RPMI-8226 leukemia
# [48] = test system: CCRF-CEM leukemia
# [49] = test system: T-47D breast
# [50] = test system: IGROV1 ovarian
# [51] = test system: SK-MEL-2 melanoma
# [52] = test system: NCI-H522 lung
# [53] = test system: UACC-62 melanoma
# [54] = test system: HOP-62 NSCLC
# [55] = test system: BT-549 breast
# [56] = test system: HT29 colon
# [57] = test system: COLO 205 colon
structure (smiles),measurement,setting,value
Clc1nc(Cl)c2ncn(C/C=C/Cn3cnc4c(Cl)nc(Cl)nc43)c2n1,GI50,[1],17.3 µM
same,TGI,[1],33.9 µM
same,GI50,[2],19.1 µM
same,TGI,[2],44 µM
same,GI50,[3],10.7 µM
same,TGI,[3],24.4 µM
same,GI50,[4],6.11 µM
same,TGI,[4],21 µM
same,GI50,[5],14.9 µM
same,TGI,[5],32.2 µM
same,GI50,[6],13.2 µM
same,TGI,[6],32 µM
same,GI50,[7],8.72 µM
same,TGI,[7],22.5 µM
same,GI50,[8],16.8 µM
same,TGI,[8],31.3 µM
same,GI50,[9],19.8 µM
same,TGI,[9],39.4 µM
same,GI50,[10],12.2 µM
same,TGI,[10],25.4 µM
same,GI50,[11],16 µM
same,TGI,[11],31.4 µM
same,GI50,[12],16.8 µM
same,TGI,[12],30.7 µM
same,GI50,[13],11 µM
same,TGI,[13],27.8 µM
same,GI50,[14],15.5 µM
same,TGI,[14],55.8 µM
same,GI50,[15],19.5 µM
same,TGI,[15],35.1 µM
same,GI50,[16],21.2 µM
same,TGI,[16],39.7 µM
same,GI50,[17],20.1 µM
same,TGI,[17],44.6 µM
same,GI50,[18],44.3 µM
same,TGI,[18],> 100 µM
same,GI50,[19],21.7 µM
same,TGI,[19],39 µM
same,GI50,[20],15.2 µM
same,TGI,[20],28.6 µM
same,GI50,[21],13.9 µM
same,TGI,[21],28.1 µM
same,GI50,[22],18.2 µM
same,TGI,[22],32.2 µM
same,GI50,[23],19.7 µM
same,TGI,[23],40.7 µM
same,GI50,[24],17.5 µM
same,TGI,[24],33 µM
same,GI50,[25],6.69 µM
same,TGI,[25],21.6 µM
same,GI50,[26],17.3 µM
same,TGI,[26],> 100 µM
same,GI50,[27],20 µM
same,TGI,[27],40.7 µM
same,GI50,[28],14.9 µM
same,TGI,[28],28.9 µM
same,GI50,[29],17.5 µM
same,TGI,[29],33.2 µM
same,GI50,[30],17 µM
same,TGI,[30],37.4 µM
same,GI50,[31],31.2 µM
same,TGI,[31],52.5 µM
same,GI50,[32],17.9 µM
same,TGI,[32],34.5 µM
same,GI50,[33],21.5 µM
same,TGI,[33],41.2 µM
same,GI50,[34],21.3 µM
same,TGI,[34],41 µM
same,GI50,[35],16.1 µM
same,TGI,[35],30.2 µM
same,GI50,[36],19.1 µM
same,TGI,[36],38 µM
same,GI50,[37],14.6 µM
same,TGI,[37],30.5 µM
same,GI50,[38],21.2 µM
same,TGI,[38],38 µM
same,GI50,[39],14.6 µM
same,TGI,[39],35.1 µM
same,GI50,[40],22.3 µM
same,TGI,[40],42.9 µM
same,GI50,[41],18.7 µM
same,TGI,[41],38 µM
same,GI50,[42],2.3 µM
same,TGI,[42],6.42 µM
same,GI50,[43],20.5 µM
same,TGI,[43],36.9 µM
same,GI50,[44],16.5 µM
same,TGI,[44],31.1 µM
same,GI50,[45],20 µM
same,TGI,[45],34.8 µM
same,GI50,[46],23.4 µM
same,TGI,[46],48.5 µM
same,GI50,[47],10.4 µM
same,TGI,[47],25.8 µM
same,GI50,[48],10.7 µM
same,TGI,[48],25.3 µM
same,GI50,[49],11.2 µM
same,TGI,[49],32 µM
same,GI50,[50],11.8 µM
same,TGI,[50],25.7 µM
same,GI50,[51],14.2 µM
same,TGI,[51],29.3 µM
same,GI50,[52],6.75 µM
same,TGI,[52],22.7 µM
same,GI50,[53],17.5 µM
same,TGI,[53],32.1 µM
same,GI50,[54],15.6 µM
same,TGI,[54],32.9 µM
same,GI50,[55],16.7 µM
same,TGI,[55],31.3 µM
same,GI50,[56],14.7 µM
same,TGI,[56],29.9 µM
same,GI50,[57],15.1 µM
same,TGI,[57],35.5 µM

# From PubChem BioAssay (NCI)
